Organism: Rattus norvegicus
Assay: Open TG-GATES - Regimen: Daily Repeat
Assay type: toxicity, organism-based, Sprague-Dawley
Parameters: regimen Daily Repeat, gender Male, age 6 weeks
Conditions: in vivo, po, 5 mg/kg, route gavage, dose level Low; for APTT / Bas / Eos / Fbg / Hb / Ht / Lym / MCH / MCHC / MCV / Mono / Neu / PT / Plat / RBC / Ret / WBC: tissue Blood; for KIDNEY_L / KIDNEY_R / KIDNEY_TOTAL: tissue Kidney; for LIVER: tissue Liver; for A/G / ALP / ALT / AST / BUN / CRE / Ca / Cl / DBIL / GLC / IP / K / LDH / Na / PL / RALB / TBIL / TC / TG / TP / gamma-GTP: tissue Plasma

CC1=C(CC(=O)O)c2cc(F)ccc2/C1=C\c1ccc([S+](C)[O-])cc1 (configuration not stated)
TERMINAL_BW (72 h, time 3 day): 233.7 g
APTT (72 h, time 3 day): 15.8 s
Bas (72 h, time 3 day): 0%
Eos (72 h, time 3 day): 1%
Fbg (72 h, time 3 day): 306.2 mg/dL
Hb (72 h, time 3 day): 14.4 g/dL
Ht (72 h, time 3 day): 42.7%
Lym (72 h, time 3 day): 72.4%
MCH (72 h, time 3 day): 21.2 pg
MCHC (72 h, time 3 day): 33.8%
MCV (72 h, time 3 day): 62.7 fL
Mono (72 h, time 3 day): 2.4%
Neu (72 h, time 3 day): 23.8%
PT (72 h, time 3 day): 13.7 s
Plat (72 h, time 3 day): 128.2 x10_4/uL
RBC (72 h, time 3 day): 681.2 x10_4/ul
Ret (72 h, time 3 day): 6.8%
WBC (72 h, time 3 day): 91.3 x10_2/uL
KIDNEY_L (72 h, time 3 day): 1 g
KIDNEY_R (72 h, time 3 day): 1 g
KIDNEY_TOTAL (72 h, time 3 day): 1.9 g
LIVER (72 h, time 3 day): 11.2 g
A/G (72 h, time 3 day): 0.9
ALP (72 h, time 3 day): 1483.6 IU/L
ALT (72 h, time 3 day): 40.6 IU/L
AST (72 h, time 3 day): 67.8 IU/L
BUN (72 h, time 3 day): 15.2 mg/dL
CRE (72 h, time 3 day): 0.2 mg/dL
Ca (72 h, time 3 day): 11.1 mg/dL
Cl (72 h, time 3 day): 106.2 meq/L
DBIL (72 h, time 3 day): 0.01 mg/dL
GLC (72 h, time 3 day): 177 mg/dL
IP (72 h, time 3 day): 7.3 mg/dL
K (72 h, time 3 day): 4.2 meq/L
LDH (72 h, time 3 day): 76 IU/L
Na (72 h, time 3 day): 142 meq/L
PL (72 h, time 3 day): 168.2 mg/dL
RALB (72 h, time 3 day): 2.7 g/dL
TBIL (72 h, time 3 day): 0.018 mg/dL
TC (72 h, time 3 day): 88 mg/dL
TG (72 h, time 3 day): 121.8 mg/dL
TP (72 h, time 3 day): 5.6 g/dL
gamma-GTP (72 h, time 3 day): 1.2 IU/L
TERMINAL_BW ([…], time 7 day): 272.8 g
TERMINAL_BW ([…], time 14 day): 329.4 g
TERMINAL_BW ([…], time 28 day): 403.3 g
APTT ([…], time 7 day): 18.1 s
Bas ([…], time 7 day): 0%
Eos ([…], time 7 day): 1%
Fbg ([…], time 7 day): 300.2 mg/dL
Hb ([…], time 7 day): 14.2 g/dL
Ht ([…], time 7 day): 41.6%
Lym ([…], time 7 day): 79%
MCH ([…], time 7 day): 21.3 pg
MCHC ([…], time 7 day): 34.2%
MCV ([…], time 7 day): 62.3 fL
Mono ([…], time 7 day): 2%
Neu ([…], time 7 day): 17.4%
PT ([…], time 7 day): 13.7 s
Plat ([…], time 7 day): 134 x10_4/uL
RBC ([…], time 7 day): 667.8 x10_4/ul
Ret ([…], time 7 day): 5.8%
WBC ([…], time 7 day): 93.6 x10_2/uL
APTT ([…], time 14 day): 17.3 s
Bas ([…], time 14 day): 0%
Eos ([…], time 14 day): 1%
Fbg ([…], time 14 day): 321 mg/dL
Hb ([…], time 14 day): 15.5 g/dL
Ht ([…], time 14 day): 45.7%
Lym ([…], time 14 day): 77.2%
MCH ([…], time 14 day): 21.1 pg
MCHC ([…], time 14 day): 34%
MCV ([…], time 14 day): 62.1 fL
Mono ([…], time 14 day): 2.2%
Neu ([…], time 14 day): 18.6%
PT ([…], time 14 day): 13.8 s
Plat ([…], time 14 day): 123.9 x10_4/uL
RBC ([…], time 14 day): 737.2 x10_4/ul
Ret ([…], time 14 day): 4%
WBC ([…], time 14 day): 93.7 x10_2/uL
APTT ([…], time 28 day): 17.8 s
Bas ([…], time 28 day): 0%
Eos ([…], time 28 day): 1.4%
Fbg ([…], time 28 day): 292 mg/dL
Hb ([…], time 28 day): 15.4 g/dL
Ht ([…], time 28 day): 46.5%
Lym ([…], time 28 day): 79%
MCH ([…], time 28 day): 18.6 pg
MCHC ([…], time 28 day): 33.1%
MCV ([…], time 28 day): 56.4 fL
Mono ([…], time 28 day): 2%
Neu ([…], time 28 day): 17.4%
PT ([…], time 28 day): 12.8 s
Plat ([…], time 28 day): 112.3 x10_4/uL
RBC ([…], time 28 day): 826.8 x10_4/ul
Ret ([…], time 28 day): 2.6%
WBC ([…], time 28 day): 97.8 x10_2/uL
KIDNEY_L ([…], time 7 day): 1.2 g
KIDNEY_R ([…], time 7 day): 1.2 g
KIDNEY_TOTAL ([…], time 7 day): 2.3 g
KIDNEY_L ([…], time 14 day): 1.3 g
KIDNEY_R ([…], time 14 day): 1.3 g
KIDNEY_TOTAL ([…], time 14 day): 2.5 g
KIDNEY_L ([…], time 28 day): 1.4 g
KIDNEY_R ([…], time 28 day): 1.4 g
KIDNEY_TOTAL ([…], time 28 day): 2.8 g
LIVER ([…], time 7 day): 13.1 g
LIVER ([…], time 14 day): 14.3 g
LIVER ([…], time 28 day): 16.6 g
A/G ([…], time 7 day): 0.9
ALP ([…], time 7 day): 1462.4 IU/L
ALT ([…], time 7 day): 37.6 IU/L
AST ([…], time 7 day): 67.4 IU/L
BUN ([…], time 7 day): 17.6 mg/dL
CRE ([…], time 7 day): 0.2 mg/dL
Ca ([…], time 7 day): 11 mg/dL
Cl ([…], time 7 day): 104.2 meq/L
DBIL ([…], time 7 day): 0.012 mg/dL
GLC ([…], time 7 day): 183.6 mg/dL
IP ([…], time 7 day): 6.4 mg/dL
K ([…], time 7 day): 4.2 meq/L
LDH ([…], time 7 day): 98 IU/L
Na ([…], time 7 day): 140.6 meq/L
PL ([…], time 7 day): 156.6 mg/dL
RALB ([…], time 7 day): 2.7 g/dL
TBIL ([…], time 7 day): 0.022 mg/dL
TC ([…], time 7 day): 78.8 mg/dL
TG ([…], time 7 day): 122.4 mg/dL
TP ([…], time 7 day): 5.8 g/dL
gamma-GTP ([…], time 7 day): 1 IU/L
A/G ([…], time 14 day): 0.9
ALP ([…], time 14 day): 1448 IU/L
ALT ([…], time 14 day): 40 IU/L
AST ([…], time 14 day): 65.6 IU/L
BUN ([…], time 14 day): 16.4 mg/dL
CRE ([…], time 14 day): 0.2 mg/dL
Ca ([…], time 14 day): 11 mg/dL
Cl ([…], time 14 day): 105.4 meq/L
DBIL ([…], time 14 day): 0.01 mg/dL
GLC ([…], time 14 day): 177.2 mg/dL
IP ([…], time 14 day): 6.2 mg/dL
K ([…], time 14 day): 3.6 meq/L
LDH ([…], time 14 day): 62.4 IU/L
Na ([…], time 14 day): 143 meq/L
PL ([…], time 14 day): 163 mg/dL
RALB ([…], time 14 day): 2.8 g/dL
TBIL ([…], time 14 day): 0.044 mg/dL
TC ([…], time 14 day): 74.6 mg/dL
TG ([…], time 14 day): 153.8 mg/dL
TP ([…], time 14 day): 6 g/dL
gamma-GTP ([…], time 14 day): 1 IU/L
A/G ([…], time 28 day): 0.8
ALP ([…], time 28 day): 1234.6 IU/L
ALT ([…], time 28 day): 34.4 IU/L
AST ([…], time 28 day): 63.8 IU/L
BUN ([…], time 28 day): 17.4 mg/dL
CRE ([…], time 28 day): 0.3 mg/dL
Ca ([…], time 28 day): 10.6 mg/dL
Cl ([…], time 28 day): 103.8 meq/L
DBIL ([…], time 28 day): 0.014 mg/dL
GLC ([…], time 28 day): 187 mg/dL
IP ([…], time 28 day): 6.4 mg/dL
K ([…], time 28 day): 3.6 meq/L
LDH ([…], time 28 day): 72.8 IU/L
Na ([…], time 28 day): 142.8 meq/L
PL ([…], time 28 day): 164.8 mg/dL
RALB ([…], time 28 day): 2.8 g/dL
TBIL ([…], time 28 day): 0.08 mg/dL
TC ([…], time 28 day): 77.8 mg/dL
TG ([…], time 28 day): 195 mg/dL
TP ([…], time 28 day): 6.4 g/dL
gamma-GTP ([…], time 28 day): 1 IU/L

From ChEMBL document CHEMBL3885861, “Open TG-GATES”
